“Also recorded” adds a separate entry of the source.
Experiments:
[1] = tested on: rats with medial frontal cortical contusions; assay: Cerebral edema (brain tissue water content) after medial frontal cortex contusion, Example 1; assay type: in vivo, rat; conditions: 4 mg/kg in cyclodextrin, i.p. 1 h and s.c. 6 h post-injury; 2, 24 and 72 hours; compared to vehicle
Procedure: Contusions to the medical frontal cortex (MFC) using a pneumatic impactor device were generated. Animals were anesthetized by injection of Nembutal (50 mg/kg, i.p) and placed in a stereotaxic apparatus, with body core temperature being maintained with a homeothermic heating blanket system. Using aseptic techniques, a midline incision was made in the scalp, and the fascia retracted to expose the cranium. A centered, bilateral craniotomy was made 3 mm anterior to bregma using a 6 mm diameter trephan. After the removal of the bone, the tip of the impactor was moved to AP:3.0; ML:0.0, checked for adequate clearance, retracted to its elevated position and lowered 3.5 mm DV, so it penetrated the cortex 2 mm. The contusion was made at a velocity of 2.25 m/s with a brain contact time of 0.5 seconds. Following this procedure, the wound cavity was thoroughly cleaned and all bleeding stopped before the fascia and scalp, were sutured closed. In all experiments, the rats' group identity was coded with regard to surgery and treatment to prevent experimenter bias during behavioral testing and later histological examination.
These experimental solutions were then diluted 1:1 with sterile water for a final concentration of HBC of 22.5%.
Sprague-Dawley male rats, approximately 90 days of age at the time of surgery, were used. Rats were housed in individual cages, with a 12:12 light:dark cycle. Food and water were provided ad libitum throughout the experiment. Control rats received sham surgeries and the rest received medial frontal cortical contusions as described in the general methods. The sham-operated controls were given vehicle (cyclodextrin). […] Treatment began one hour after the contusion was produced. […] Subsequently, a second subcutaneous injection 6 hours post-injury for absorption that is more gradual. […]
At 2, 24, and 72 hours the rats were anesthetized, decapitated, and their brains removed quickly from the cranial cavity. […] The brain was placed on a pre-weighed dish and the total weight of the sample was measured. […]

[2] = tested on: rats with bilateral frontal cortical contusions; assay: Morris water maze after MFC contusion, Example 2; assay type: in vivo, rat; conditions: 4 mg/kg
Procedure: Contusions to the MFC were carried out as described in Example 1.
(§1) These injections started at one hour post-injury with an intraperitoneal injection, and then were repeated at 6, 24, 48, 72, 96, and 120 hours post-injury with subcutaneous injections.
The Morris Water Maize (MWM) consisted of a circular tank with a diameter of 133 cm filled with opaque water (20±1° C.; non-toxic Artista™ nontoxic white tempura paint) to a depth of 64 cm (23 cm from top of tank). A platform (11 cm×11 cm) was submerged to a depth of 2 cm and placed approximately 28 cm from the wall of the pool in the center of the northeast quadrant. The position of the platform will remain constant throughout the experiment. MWM testing began seven days after surgery. Each animal was tested for a total of 10 days (2 trials per day) in two 5-day blocks. At the start of each trial, the experimenter placed a rat into the pool at one of four starting positions, and at the same time, activate the computer-interfaced camera tracking system. Each rat was allowed to swim in the pool until it reached the platform or until 90 seconds has passed. […] The performance of each rat was measured in terms of latency to platform, length of path to platform, and swim strategy, i.e., percent of total time spent in the outer versus inner annuli.

[3] = tested on: rats with bilateral frontal cortical contusions; assay: Histological count of ChAT positive cells in nucleus basalis magnocellularis, motor behavior and cavity size, Example 2; assay type: in vivo, rat; conditions: 4 mg/kg
Procedure: A single asterisk (*) indicates a significant difference from sham, a double asterisk (**) indicates a significant difference from both sham and lesion controls.
as §1
To determine the relationship between neural cell numbers and behavior, the number of neurons and glia were counted to determine the correlative relationship between the survival of these cells and behavioral performance (FIG. 3).

[4] = tested on: GABA receptor; conditions: independent of the benzodiazepines; cited from earlier work
[5] = tested on: sigma receptor; conditions: cited from earlier work
[6] = tested on: cell death; conditions: by attenuating release of inflammatory cytokines; cited from earlier work

Row | Compound | cerebral edema [1] | Morris water maze performance vs injured rats given vehicle ([2]; injections from 1 h to 120 h post-injury, last three blocks of testing, p<0.05) | performance scores on the spatial learning task vs other groups ([2]; all days of testing) | necrotic cavity size [3] | spontaneous motor behavior [3] | number of ChAT positive cells in the nucleus basalis magnocellularis ([3]; vs untreated controls) | modulation of the GABA receptor [4] | activity at the sigma receptor [5] | cell death in vitro [6]
1 | CC(=O)[C@H]1CC[C@H]2[C@@H]3CC[C@H]4C[C@H](O)CC[C@]4(C)[C@H]3CC[C@]12C [allopregnanolone, allopregnan-3α, or 3β-ol-20-one] | significantly reduced cerebral edema | improved performance on an acquisition task; also recorded: significantly outperformed the injured rats given vehicle | better performance scores on the spatial learning task than the other groups | no differences | no differences | more remaining viable neurons in this structure than untreated controls | positive modulators of the GABA receptor | antagonists at the sigma receptor | prevent cell death in vitro
2 | CC(=O)[C@H]1CC[C@H]2[C@@H]3CC[C@@H]4C[C@@H](O)CC[C@]4(C)[C@H]3CC[C@]12C [epipregnanolone] | intermediate between injured controls and the allopregnanolone-treated injured rats | – | – | – | – | – | positive modulators of the GABA receptor | antagonists at the sigma receptor | –
